The source of these data is ChEMBL document CHEMBL1201862, “PubChem BioAssay data set” (2004).

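Five concentrations, 48 hours, 96-well plates. GI50 is the concentration that inhibits growth by half.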 The source made the active and inactive calls. Cut-off read from the data, not from the text of the source: active = GI50 up to about 1.1 µM and inactive = higher.

Test systems include NCI-H522; OVCAR-8; HOP-62; SNB-75; HCT-15; HT-29; Malme-3M; IGROV-1; NCI-H23; SNB-19; MDA-N; SF-539; A549; A498; PC-3; SF-268; U-251; EKVX; RXF 393; Hs-578T.
What all share (assay): NCI tumour cell line growth inhibition, 48 h

For the compound `COc1cc2c3c(c4cc(OC)c(OC)cc4c2cc1OC)[C@H](O)[C@@H]1CCCN1C3`, the GI50 in the assay with NCI-H522 is < 0.0378 µM (active); with OVCAR-8, < 0.0308 µM (active); in the assay on HOP-62, < 0.0198 µM (active); in the assay on SNB-75, < 0.0312 µM (active); in the assay on HCT-15, less than 0.0239 µM; in the assay on HT-29, < 0.0191 µM (active). The GI50 with Malme-3M was < 0.0384 µM (active); with IGROV-1, < 0.0275 µM (active); in the assay on NCI-H23, < 0.0344 µM (active); in the assay on SNB-19, 0.0276 µM (active); with MDA-N, < 0.0363 µM (active); in the assay with SF-539, < 0.0365 µM (active). In addition, the GI50 in the assay with A549 was < 0.0254 µM (active); in the assay on A498, < 0.0208 µM (active); in the assay on PC-3 it was < 0.0303 µM (active); in the assay on SF-268, < 0.0408 µM (active); in the assay on U-251, < 0.0245 µM (active); in the assay with EKVX, < 0.0217 µM (active).

Turning to `CC1OC(OC2C(OC(=O)[C@@H]3CC(C)(C)C[C@@H]4C5=CC[C@@H]6[C@@]7(C)C[C@H](O)[C@H](OC8OC(CO)C(O)C(O)C8O)[C@@](C)(CO)C7[C@H](O)C[C@@]6(C)[C@]5(C)C[C@@H](O)[C@H]43)OCC(O)C2O)C(O)C(O)C1O` (stereo partly drawn), the GI50 with NCI-H522 is 6.12 µM (inactive); with OVCAR-8, > 15 µM (inactive); with HOP-62, > 15 µM (inactive); in the assay with SNB-75 it was > 15 µM (inactive); in the assay with RXF 393 it was 7.45 µM (inactive); in the assay with HCT-15, more than 15 µM. In addition, the GI50 in the assay with HT-29 is 11.5 µM (inactive); in the assay with Hs-578T, > 15 µM (inactive); in the assay with IGROV-1 it was > 15 µM (inactive); in the assay on NCI-H23, 7.05 µM (inactive); in the assay on SNB-19 it was > 15 µM (inactive); with SF-539 it was > 15 µM (inactive). Further, the GI50 in the assay on PC-3 was > 15 µM (inactive); in the assay with SF-268, > 15 µM (inactive); in the assay on U-251, > 15 µM (inactive); in the assay on EKVX, 9.73 µM (inactive).

`CC1=NN(c2nc(N)nc(C/C(N)=N/O)n2)C(C)(C)C1`: the GI50 was > 100 µM (inactive) with NCI-H522; > 100 µM (inactive) in the assay with OVCAR-8; > 100 µM (inactive) in the assay on HOP-62; > 100 µM (inactive) in the assay with SNB-75; more than 100 µM in the assay on HCT-15; > 100 µM (inactive) in the assay on HT-29. The GI50 with Malme-3M, in the assay with Hs-578T, in the assay with IGROV-1, with NCI-H23, in the assay with SNB-19 and with SF-539 was > 100 µM (inactive) throughout. In addition, the GI50 with A549, in the assay on A498, in the assay on SF-268, with U-251 and in the assay with EKVX was > 100 µM (inactive) in each case.

For the compound `NC(CCSCC(F)(F)F)C(=O)O` (stereo not drawn), the GI50 in the assay with NCI-H522 is > 100 µM (inactive); in the assay on OVCAR-8, > 100 µM (inactive); in the assay with HOP-62, > 100 µM (inactive); with SNB-75 it was > 100 µM (inactive); in the assay with RXF 393 it was > 100 µM (inactive); in the assay on HCT-15, more than 100 µM. Also, the GI50 with HT-29, with Malme-3M, in the assay with IGROV-1, with NCI-H23, with SNB-19 and in the assay with SF-539 was > 100 µM (inactive) each time. The GI50 in the assay with A549, with A498, in the assay with SF-268, in the assay on U-251 and in the assay on EKVX was > 100 µM (inactive) in each case.

Turning to `OC1(c2ccccc2)OC(C#Cc2ccccc2)(c2ccccc2)c2ccccc21` (stereo not drawn), the GI50 in the assay with NCI-H522 is 7.48 µM (inactive); in the assay on OVCAR-8, 2.45 µM (inactive); in the assay on HOP-62, 15.4 µM (inactive); in the assay on SNB-75, 6.1 µM (inactive); in the assay on RXF 393 it was 1.95 µM (inactive); in the assay with HCT-15, 3.44 µM. Also, the GI50 in the assay with HT-29 was 2.02 µM (inactive); with Malme-3M, 10.6 µM (inactive); in the assay with IGROV-1, 11 µM (inactive); with NCI-H23 it was 3.47 µM (inactive); with SNB-19 it was 13.2 µM (inactive); with SF-539, 1.97 µM (inactive). Also, the GI50 was 3.86 µM (inactive) with A549; 2.82 µM (inactive) in the assay with A498; 4.18 µM (inactive) with SF-268; 4.12 µM (inactive) with U-251; 3.19 µM (inactive) with EKVX.

Turning to `COc1cc(C2c3cc4c(cc3[C@@H](Nc3ccc([N+](=O)[O-])cc3)C3COC(=O)[C@H]23)OCO4)cc(OC)c1O` (stereo partly drawn), the GI50 with NCI-H522 was 1.63 µM (inactive); in the assay with OVCAR-8, 1.83 µM (inactive); with HOP-62, 0.321 µM (active); in the assay on SNB-75 it was 1.19 µM (inactive); in the assay with RXF 393 it was 2.02 µM (inactive); with HCT-15, 2.87 µM. Besides, the GI50 is 2.64 µM (inactive) with HT-29; 2.01 µM (inactive) in the assay on Malme-3M; 4.72 µM (inactive) in the assay on IGROV-1; 0.569 µM (active) with NCI-H23; 0.778 µM (active) with SNB-19; 4.09 µM (inactive) in the assay with MDA-N. The GI50 with SF-539 was 0.92 µM (active); with A498, 0.676 µM (active); in the assay on PC-3, 2.16 µM (inactive); in the assay with SF-268, 2.01 µM (inactive); in the assay on U-251, 0.631 µM (active); with EKVX, 3.37 µM (inactive).

Take `CC(=O)Nc1ccc(S(=O)(=O)/N=c2/sc(S(N)(=O)=O)nn2C)cc1`: the GI50 was > 100 µM (inactive) with NCI-H522; > 100 µM (inactive) in the assay with OVCAR-8; > 100 µM (inactive) in the assay with HOP-62; > 100 µM (inactive) in the assay with SNB-75; > 100 µM (inactive) with RXF 393; more than 100 µM in the assay with HCT-15. The GI50 with HT-29, with Malme-3M, in the assay on NCI-H23, in the assay on SNB-19, in the assay with SF-539 and with A549 was > 100 µM (inactive) each time. The GI50 with A498, in the assay with PC-3, in the assay on SF-268, in the assay on U-251 and in the assay on EKVX was > 100 µM (inactive) in each case.

With `O=C1c2ccc3ccccc3c2CCC1N1CCCCC1` (stereo not drawn), the GI50 is 16.8 µM (inactive) with NCI-H522; 20.7 µM (inactive) in the assay with OVCAR-8; 18.7 µM (inactive) in the assay with HOP-62; 17.4 µM (inactive) in the assay with SNB-75; 20.6 µM (inactive) in the assay with RXF 393; 20.2 µM with HCT-15. Besides, the GI50 is 20.5 µM (inactive) in the assay on HT-29; 17.6 µM (inactive) in the assay on Malme-3M; 20.3 µM (inactive) in the assay with Hs-578T; 15.2 µM (inactive) with IGROV-1; 19.7 µM (inactive) with NCI-H23; 19.7 µM (inactive) in the assay with SNB-19. Further, the GI50 in the assay on SF-539 is 14.6 µM (inactive); in the assay with A549, 19.5 µM (inactive); in the assay with PC-3, 17.4 µM (inactive); with SF-268, 19.1 µM (inactive); in the assay with U-251, 18.9 µM (inactive); in the assay with EKVX, 22.4 µM (inactive).
